Laboratory results from PubChem BioAssay (NCI).
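Step 1: Grow cells in 96-well plates. Step 2: Expose to compound for 48 hours at 5 concentrations. Step 3: Interpolate endpoints linearly; if unreached, use highest concentration. GI50 is the concentration that inhibits growth by half. The concentration for full growth arrest is given as TGI.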

Columns and labels:
Assay in all cases: growth of human tumour cells (NCI), 48 h
HL-60(TB) leukemia = tested on: HL-60(TB) leukemia
T-47D breast = tested on: T-47D breast
NCI-H226 lung = tested on: NCI-H226 lung
SK-MEL-28 melanoma = tested on: SK-MEL-28 melanoma
SF-268 CNS = tested on: SF-268 CNS
HOP-62 NSCLC = tested on: HOP-62 NSCLC
IGROV1 ovarian = tested on: IGROV1 ovarian
BT-549 breast = tested on: BT-549 breast
SF-295 CNS = tested on: SF-295 CNS
SW-620 colon = tested on: SW-620 colon

Row | SMILES | GI50 (HL-60(TB) leukemia) [µM] | TGI (HL-60(TB) leukemia) [µM] | GI50 (T-47D breast) [µM] | TGI (T-47D breast) [µM] | GI50 (NCI-H226 lung) [µM] | TGI (NCI-H226 lung) [µM] | GI50 (SK-MEL-28 melanoma) [µM] | TGI (SK-MEL-28 melanoma) [µM] | GI50 (SF-268 CNS) [µM] | TGI (SF-268 CNS) [µM] | GI50 (HOP-62 NSCLC) [µM] | TGI (HOP-62 NSCLC) [µM] | GI50 (IGROV1 ovarian) [µM] | TGI (IGROV1 ovarian) [µM] | GI50 (BT-549 breast) [µM] | TGI (BT-549 breast) [µM] | GI50 (SF-295 CNS) [µM] | TGI (SF-295 CNS) [µM] | GI50 (SW-620 colon) [µM] | TGI (SW-620 colon) [µM]
1 | CC[C@@H](C(=O)[C@@H](C)[C@@H](O)[C@H](C)[C@@H]1O[C@@H]([C@@H](CC)C(=O)N(CC)CC)CC[C@@H]1C)C1O[C@]2(C=CC(=O)[C@]3(CC[C@@](C)([C@H]4CC[C@](O)(CC)[C@H](C)O4)O3)O2)[C@H](C)C[C@@H]1C (stereo not given in full) | 2.16 | 4.95 | 2.59 | 9.44 | 2.21 | 6.71 | 4.45 | 21.3 | 3.25 | 80.9 | 3.75 | 20.1 | 2.31 | 7.71 | 3.29 | 61.9 | 2.26 | 6.51 | 3.11 | 23.5
2 | CN1CCN(c2ccc3nc(-c4ccc5nc(-c6ccc(OCCC(C)(C)C)cc6)[nH]c5c4)[nH]c3c2)CC1 | 4.71 | 29.1 | 14.2 | 41.1 | 23.8 | 52.2 | 3.03 | 9.43 | 6.58 | 25.4 | 7.1 | 26.8 | 7.69 | 31.6 | 17.5 | 40.1 | 2.34 | 6.22 | 2.12 | 3.96
3 | COC(=O)C1=C(C)NC(C)=C(C(=O)OC)C1/C=C(Cl)/C=C/c1ccccc1 | 17.8 | 41.2 | 42.9 | > 100 | 24.8 | 73.2 | 17.1 | 35 | 20.9 | 58.8 | 20.1 | 38.5 | 18.2 | 43.8 | 21.6 | 55.7 | 17.3 | 38.6 | 37.3 | > 100
4 | O=C(NP(=O)(N1CC1)N1CC1)c1cc(I)ccc1I |  | > 96.4 |  | > 100 |  | > 100 |  | > 100 |  | > 100 |  | > 71.5 |  | > 100 |  | > 100 |  | > 100 |  | > 100
5 | O=C1c2ccccc2C(=O)c2c1ccc(C1C(=O)c3ccccc3C1=O)c2-c1c(C2C(=O)c3ccccc3C2=O)ccc2c1C(=O)c1ccccc1C2=O |  | > 100 |  | > 100 |  | > 100 |  | > 100 |  | > 100 |  | > 100 |  | > 100 |  | > 100 |  | > 100 |  | > 100
6 | O=C(O)c1cccc(N=Nc2c(S(=O)(=O)O)ccc3c2C(=O)c2ccccc2C3=O)c1O |  | > 100 |  | > 100 |  | > 100 |  | > 100 |  | > 100 |  | > 100 |  | > 100 |  | > 100 |  | > 100 |  | > 100
7 | O=C(/C=C/c1cc([N+](=O)[O-])ccc1Cl)c1ccccc1 | 32 | 96.4 | 27.9 | > 100 | 15.4 | 59.3 | 14.3 | 29 | 16.9 | 43.6 | 25 | 63.5 | 4.6 | 31.7 | 14.5 | 27.8 | 15.6 | 49.6 | 2.05 | 3.9
8 | COc1ccc(Nc2c3ccccc3nc3ccccc23)cc1 | 1.69 | 4.1 | 2.37 | 14.3 | 1.2 | 3.84 | 2.17 | 15.3 | 3.63 | 19.1 | 1.27 | 14.4 | 0.629 | 8.72 | 5.99 | 23.6 | 0.904 | 10.4 | 0.599 | 14.4
9 | CCOC(=O)C(=Cc1ccc(Oc2ccccc2)cc1)C(=O)OCC |  | 5.54 |  | 24.6 |  | 12.1 |  | 7.49 |  | 9.19 |  | 11.2 |  | 20.8 |  | 5.11 |  | 10.6 |  | 5.9
